Where two headings read alike, the source gives them in different places.
Assays:
8305C cells = assay: Tumor cell proliferation in vitro; assay type: cell-based
ABL1 = ABL1 (Homo sapiens, UniProt P00519); assay: Tyrosine kinase inhibition; assay type: biochemical
CHL = CHL test; assay type: cell-based
HER-2 = HER-2 (Homo sapiens, UniProt P04626); assay: Tyrosine kinase inhibition; assay type: biochemical; conditions: read-out: IC50, HER2
Plasma protein binding = assay type: in vitro ADME; conditions: dogs
RET and ERK activation = assay: Activation of RET and ERK in TT cells; assay type: cell-based, human; conditions: concentration-dependent
KDR = KDR (Homo sapiens, UniProt P35968); assay: Tyrosine kinase inhibition; assay type: biochemical
[1] = Cynomolgus monkey plasma kinetics; assay type: in vivo
BLK = BLK (Homo sapiens, UniProt P51451); assay: Tyrosine kinase inhibition; assay type: biochemical
MDA-MB-231 cells = assay: Tumor cell proliferation in vitro; assay type: cell-based
matrigel angiogenesis = assay type: in vivo, mouse; conditions: induced by VEGF and FGF
SRC = SRC (Homo sapiens, UniProt P12931); assay: Tyrosine kinase inhibition; assay type: biochemical
[2] = test system: EGFR signaling in tumor tissue; assay: PK/PD in plasma and tumor tissue of tumor-bearing mice; assay type: in vivo; conditions: after a single dose, 25 and 50 mg/kg
Mouse micronucleus test = conditions: in vivo mouse micronucleus test
ALK1 = ALK1 (Homo sapiens, UniProt P37023); assay: Tyrosine kinase inhibition; assay type: biochemical
ECA-109 cells = assay: Tumor cell proliferation in vitro; assay type: cell-based, human
A431 cells = assay: Tumor cell proliferation in vitro; assay type: cell-based, human; conditions: A431; read-out: IC50, proliferation
BTK = BTK (Homo sapiens, UniProt Q06187); assay: Tyrosine kinase inhibition; assay type: biochemical
BTK, sequence (Q06187 whole entry): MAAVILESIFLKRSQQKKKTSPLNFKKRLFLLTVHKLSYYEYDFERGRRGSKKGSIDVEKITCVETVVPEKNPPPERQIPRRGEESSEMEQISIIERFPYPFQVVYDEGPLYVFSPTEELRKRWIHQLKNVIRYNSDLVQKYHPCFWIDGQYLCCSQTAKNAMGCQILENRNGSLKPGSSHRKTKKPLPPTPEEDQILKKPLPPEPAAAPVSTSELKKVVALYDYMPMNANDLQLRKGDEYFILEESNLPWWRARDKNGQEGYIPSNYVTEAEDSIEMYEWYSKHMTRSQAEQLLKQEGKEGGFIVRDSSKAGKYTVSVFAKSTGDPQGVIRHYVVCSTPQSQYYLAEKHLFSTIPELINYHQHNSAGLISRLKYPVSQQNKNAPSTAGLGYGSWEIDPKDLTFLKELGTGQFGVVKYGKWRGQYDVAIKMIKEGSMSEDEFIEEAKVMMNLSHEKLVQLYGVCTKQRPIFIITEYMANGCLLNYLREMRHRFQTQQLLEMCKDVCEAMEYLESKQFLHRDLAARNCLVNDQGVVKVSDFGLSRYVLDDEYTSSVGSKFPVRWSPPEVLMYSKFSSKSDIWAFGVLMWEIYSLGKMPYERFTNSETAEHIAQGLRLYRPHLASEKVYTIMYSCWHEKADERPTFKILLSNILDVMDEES

HER-2, sequence (P04626 23-1255): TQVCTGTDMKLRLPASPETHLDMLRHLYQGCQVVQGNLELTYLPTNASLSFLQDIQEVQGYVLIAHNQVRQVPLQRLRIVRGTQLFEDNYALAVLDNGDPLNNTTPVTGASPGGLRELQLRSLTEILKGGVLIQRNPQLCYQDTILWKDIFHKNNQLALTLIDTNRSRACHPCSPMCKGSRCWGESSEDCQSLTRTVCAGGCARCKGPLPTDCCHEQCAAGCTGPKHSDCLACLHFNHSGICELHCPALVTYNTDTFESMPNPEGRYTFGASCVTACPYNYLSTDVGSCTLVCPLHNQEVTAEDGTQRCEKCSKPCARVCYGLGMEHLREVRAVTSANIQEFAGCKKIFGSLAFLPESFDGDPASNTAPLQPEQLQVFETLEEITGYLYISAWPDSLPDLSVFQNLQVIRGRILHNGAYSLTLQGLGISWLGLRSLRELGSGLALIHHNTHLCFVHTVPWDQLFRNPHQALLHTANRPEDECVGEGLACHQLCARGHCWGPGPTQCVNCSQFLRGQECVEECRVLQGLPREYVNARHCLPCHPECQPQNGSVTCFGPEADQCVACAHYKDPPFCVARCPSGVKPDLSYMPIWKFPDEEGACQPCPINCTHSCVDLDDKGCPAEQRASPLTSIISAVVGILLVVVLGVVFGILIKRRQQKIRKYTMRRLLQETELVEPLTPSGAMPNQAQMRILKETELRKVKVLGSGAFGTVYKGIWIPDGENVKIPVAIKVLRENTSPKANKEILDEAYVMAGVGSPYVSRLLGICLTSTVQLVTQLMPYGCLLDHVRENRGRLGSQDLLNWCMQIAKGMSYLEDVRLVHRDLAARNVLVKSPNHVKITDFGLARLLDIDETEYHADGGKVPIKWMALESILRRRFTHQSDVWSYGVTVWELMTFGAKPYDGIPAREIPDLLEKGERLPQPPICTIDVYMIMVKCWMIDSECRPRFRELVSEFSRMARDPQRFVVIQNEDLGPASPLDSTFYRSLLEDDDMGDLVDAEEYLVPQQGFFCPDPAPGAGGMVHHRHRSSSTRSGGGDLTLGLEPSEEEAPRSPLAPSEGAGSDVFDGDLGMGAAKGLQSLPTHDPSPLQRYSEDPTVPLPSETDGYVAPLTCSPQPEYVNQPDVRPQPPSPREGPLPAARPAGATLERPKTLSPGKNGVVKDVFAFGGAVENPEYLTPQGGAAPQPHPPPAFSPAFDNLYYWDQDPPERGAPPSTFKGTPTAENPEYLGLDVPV
ALK1, sequence (P37023 142-503 limits assumed): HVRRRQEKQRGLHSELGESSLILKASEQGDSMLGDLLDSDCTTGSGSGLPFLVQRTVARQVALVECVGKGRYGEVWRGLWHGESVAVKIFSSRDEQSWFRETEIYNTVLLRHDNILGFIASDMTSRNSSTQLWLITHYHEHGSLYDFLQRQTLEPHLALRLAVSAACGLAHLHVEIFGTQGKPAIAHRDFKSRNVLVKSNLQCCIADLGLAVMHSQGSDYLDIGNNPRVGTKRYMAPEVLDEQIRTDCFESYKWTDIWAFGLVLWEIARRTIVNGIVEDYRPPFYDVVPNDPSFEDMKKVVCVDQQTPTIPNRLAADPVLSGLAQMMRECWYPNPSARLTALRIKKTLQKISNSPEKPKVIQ
SRC, sequence (P12931 whole entry): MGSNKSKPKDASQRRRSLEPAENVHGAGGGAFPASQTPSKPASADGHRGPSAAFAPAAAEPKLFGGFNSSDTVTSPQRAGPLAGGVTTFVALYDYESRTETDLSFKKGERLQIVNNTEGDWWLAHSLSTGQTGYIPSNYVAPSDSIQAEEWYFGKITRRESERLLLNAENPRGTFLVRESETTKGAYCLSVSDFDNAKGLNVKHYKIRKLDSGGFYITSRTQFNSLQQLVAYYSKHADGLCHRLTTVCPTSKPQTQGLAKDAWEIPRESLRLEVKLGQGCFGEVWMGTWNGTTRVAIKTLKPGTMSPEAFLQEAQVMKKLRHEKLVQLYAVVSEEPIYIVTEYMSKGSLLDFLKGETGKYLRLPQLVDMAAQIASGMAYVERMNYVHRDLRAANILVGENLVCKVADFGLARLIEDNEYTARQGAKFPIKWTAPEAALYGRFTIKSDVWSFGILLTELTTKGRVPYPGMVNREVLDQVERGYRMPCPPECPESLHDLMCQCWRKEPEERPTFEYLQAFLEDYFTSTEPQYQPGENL
BLK, sequence (P51451 whole entry): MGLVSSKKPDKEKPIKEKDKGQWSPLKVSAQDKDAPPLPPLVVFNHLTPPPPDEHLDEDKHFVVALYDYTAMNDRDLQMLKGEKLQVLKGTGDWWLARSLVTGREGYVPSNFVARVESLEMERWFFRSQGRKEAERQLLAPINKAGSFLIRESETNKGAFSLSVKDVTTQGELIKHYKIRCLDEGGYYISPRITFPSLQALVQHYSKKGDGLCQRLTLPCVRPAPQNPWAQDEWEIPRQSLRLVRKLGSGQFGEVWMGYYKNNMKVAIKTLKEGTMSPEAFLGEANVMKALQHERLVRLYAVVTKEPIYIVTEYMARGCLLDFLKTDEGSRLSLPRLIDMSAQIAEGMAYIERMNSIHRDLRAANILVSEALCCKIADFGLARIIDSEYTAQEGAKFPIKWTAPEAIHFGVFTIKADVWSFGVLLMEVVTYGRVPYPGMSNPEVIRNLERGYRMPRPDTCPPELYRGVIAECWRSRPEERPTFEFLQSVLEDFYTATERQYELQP
ABL1, sequence (P00519 whole entry): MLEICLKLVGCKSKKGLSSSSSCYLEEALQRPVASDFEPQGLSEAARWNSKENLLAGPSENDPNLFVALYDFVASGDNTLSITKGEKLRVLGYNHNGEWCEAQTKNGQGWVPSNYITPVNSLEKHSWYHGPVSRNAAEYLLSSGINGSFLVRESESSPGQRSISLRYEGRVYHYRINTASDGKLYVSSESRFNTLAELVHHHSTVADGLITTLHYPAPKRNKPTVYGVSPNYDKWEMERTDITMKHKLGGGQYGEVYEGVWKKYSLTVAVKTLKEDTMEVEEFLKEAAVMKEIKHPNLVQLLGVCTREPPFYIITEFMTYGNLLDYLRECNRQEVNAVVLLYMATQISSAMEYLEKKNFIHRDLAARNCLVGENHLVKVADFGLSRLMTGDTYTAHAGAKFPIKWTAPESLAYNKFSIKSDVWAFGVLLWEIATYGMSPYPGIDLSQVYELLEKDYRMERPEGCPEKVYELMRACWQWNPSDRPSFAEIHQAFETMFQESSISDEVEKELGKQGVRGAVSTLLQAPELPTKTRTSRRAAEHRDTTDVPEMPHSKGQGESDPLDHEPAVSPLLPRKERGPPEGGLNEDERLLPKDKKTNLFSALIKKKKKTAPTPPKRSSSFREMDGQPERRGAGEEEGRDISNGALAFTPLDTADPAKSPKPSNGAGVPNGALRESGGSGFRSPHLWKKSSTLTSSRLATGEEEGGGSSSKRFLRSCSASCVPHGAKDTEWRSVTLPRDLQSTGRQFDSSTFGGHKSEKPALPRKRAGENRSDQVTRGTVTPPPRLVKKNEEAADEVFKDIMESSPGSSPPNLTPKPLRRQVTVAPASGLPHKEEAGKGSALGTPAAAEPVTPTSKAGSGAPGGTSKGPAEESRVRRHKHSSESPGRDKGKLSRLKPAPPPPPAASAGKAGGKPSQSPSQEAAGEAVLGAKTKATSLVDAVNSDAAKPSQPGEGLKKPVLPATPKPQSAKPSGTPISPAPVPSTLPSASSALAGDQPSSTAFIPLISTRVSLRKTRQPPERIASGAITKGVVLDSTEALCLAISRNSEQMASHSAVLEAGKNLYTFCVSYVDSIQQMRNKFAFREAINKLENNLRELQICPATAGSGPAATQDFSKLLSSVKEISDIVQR

Structure (SMILES): COc1cc2c(Nc3ccc(Br)cc3F)ncnc2cc1OCCCCN(C)C.Cl.Cl [HA121-28, N-(4-bromo-2-fluorophenyl)-7-(4-(dimethylamino)butoxy)-6-methoxy quinazolin-4-amine dihydrochloride]
- IC50 (8305C cells): 623 ± 80.3 nM
- IC50 (ABL1): 153 nM
- genetic toxicity (CHL): negative
- IC50 (HER-2): 42 nM
- plasma protein binding rate (Plasma protein binding): 91.9±0.857%
- activation of RET and downstream ERK (RET and ERK activation): significantly inhibited
- IC50 (KDR): 35.7 nM
- AUC0-72h ([1]; gavage (5 mg/kg)): 1680 ± 766 ng·h/mL
- AUC0-∞ ([1]; gavage (5 mg/kg)): 1920 ± 992 ng·h/mL
- CL ([1]; gavage (5 mg/kg)): 50.8 ± 20.3 mL/min/kg
- Cmax ([1]; gavage (5 mg/kg)): 75.9 ± 27.8 ng/mL
- MRT0-72h ([1]; gavage (5 mg/kg)): 20.9 ± 2.67 h
- MRT0-∞ ([1]; gavage (5 mg/kg)): 30.5 ± 8.00 h
- Tmax ([1]; gavage (5 mg/kg)): 6.75 ± 1.50 h
- Vd ([1]; gavage (5 mg/kg)): 100 ± 24.1 L/kg
- t1/2 ([1]; gavage (5 mg/kg)): 24.4 ± 5.68 h
- AUC0-72h ([1]; intravenous (5 mg/kg)): 2610 ± 1340 ng·h/mL
- AUC0-∞ ([1]; intravenous (5 mg/kg)): 3000 ± 1880 ng·h/mL
- C6min ([1]; intravenous (5 mg/kg)): 314 ± 61.4 ng/mL
- CL ([1]; intravenous (5 mg/kg)): 34.2 ± 13.6 mL/min/kg
- MRT0-72h ([1]; intravenous (5 mg/kg)): 18.8 ± 3.77 h
- MRT0-∞ ([1]; intravenous (5 mg/kg)): 27.5 ± 11.4 h
- Vd ([1]; intravenous (5 mg/kg)): 58.7 ± 15.7 L/kg
- t1/2 ([1]; intravenous (5 mg/kg)): 22.3 ± 8.39 h
- F (oral bioavailability) ([1]; monkey): 64.4%
- IC50 (BLK): 201 nM
- IC50 (MDA-MB-231 cells; read-out: IC50): 10000 to 100000 nM
- IC50 (MDA-MB-231 cells; read-out: IC50, proliferation): 10300 ± 2010 nM
- mouse matrigel angiogenesis (matrigel angiogenesis): able to inhibit
- IC50 (SRC): 65.8 nM
- onset of inhibition of EGFR signaling pathway [2]: 2 h
- genetic toxicity (Mouse micronucleus test): negative
- IC50 (ALK1): 2590 nM
- IC50 (ECA-109 cells): 6663 ± 54.5 nM
- IC50 (A431 cells): 775 ± 76.7 nM
- IC50 (BTK): 446 nM

Source: article PMC11868595, “Safety, pharmacokinetics and efficacy of HA121-28 in patients with advanced solid tumors and RET fusion-positive non-small-cell lung cancer: a multicenter, open-label, single-arm phase 1/2 trial” (Signal Transduction and Targeted Therapy, 2025)
